This passage reports IC50 results from US20120040955A1 (priority 2009, published 2012).

The target of one test is T1, JAK2 (Homo sapiens, UniProt O60674).
T1 construct: endogenous in cells; host or cells: Mixed Molt4 / Ramos cell lysate (1:2)
In words: kinobeads assay (competition with affinity matrix in mixed Molt4/Ramos cell lysate, dot blot detection), JAK2. Type of test: binding. The note with it: activity level. How it is done: (§1) The compounds of the present invention as described in the previous examples were tested in a kinobeads assay as described for ZAP-70 (WO-A 2007/137867). Briefly, test compounds (at various concentrations) and the affinity matrix with the immobilized aminopyrido-pyrimidine ligand 24 were added to cell lysate aliquots and allowed to bind to the proteins in the lysate sample. After the incubation time the beads with captured proteins were separated from the lysate. Bound proteins were then eluted and the presence of, JAK2 and JAK3 was detected and quantified using specific antibodies in a dot blot procedure and the Odyssey infrared detection system. Dose response curves for individual kinases were generated and IC50 values calculated. Kinobeads assays for ZAP-70 (WO-A 2007/137867) and for kinase selectivity profiling (WO-A 2006/134056) have been previously described.
(§2) 5× DP buffer: 250 mM Tris-HCl pH 7.4, 25% Glycerol, 7.5 mM MgCl2, 750 mM NaCl, 5 mM Na3VO4; filter the 5× DP buffer through a 0.22 μm filter and store in aliquots at −80° C. The 5× DP buffer is diluted with H2O to 1× DP buffer containing 1 mM DTT and 25 mM NaF.
(§3) Stock solutions of test compounds were prepared in DMSO. In a 96 well plate 30 μl solution of diluted test compounds at 5 mM in DMSO were prepared. Starting with this solution a 1:3 dilution series (9 steps) was prepared. For control experiments (no test compound) a buffer containing 2% DMSO was used.
(§4) Molt4 cells (ATCC catalogue number CRL-1582) and Ramos cells (ATCC catalogue number CRL-1596) were grown in 1 litre Spinner flasks (Integra Biosciences, #182101) in suspension in RPMI 1640 medium (Invitrogen, #21875-034) supplemented with 10% Fetal Bovine Serum (Invitrogen) at a density between 0.15×10^6 and 1.2×10^6 cells/ml. Cells were harvested by centrifugation, washed once with 1× PBS buffer (Invitrogen, #14190-094) and cell pellets were frozen in liquid nitrogen and subsequently stored at −80° C. Cells were homogenized in a Potter S homogenizer in lysis buffer: 50 mM Tris-HCl, 0.8% NP40, 5% glycerol, 150 mM NaCl, 1.5 mM MgCl2, 25 mM NaF, 1 mM sodium vanadate, 1 mM DTT, pH 7.5. One complete EDTA-free tablet (protease inhibitor cocktail, Roche Diagnostics, 1873580) per 25 ml buffer was added. The material was dounced 10 times using a mechanized POTTER S, transferred to 50 ml falcon tubes, incubated for 30 minutes on ice and spun down for 10 min at 20,000 g at 4° C. (10,000 rpm in Sorvall SLA600, precooled). The supernatant was transferred to an ultracentrifuge (UZ)-polycarbonate tube (Beckmann, 355654) and spun for 1 hour at 100.000 g at 4° C. (33.500 rpm in Ti50.2, precooled). The supernatant was transferred again to a fresh 50 ml falcon tube, the protein concentration was determined by a Bradford assay (BioRad) and samples containing 50 mg of protein per aliquot were prepared. The samples were immediately used for experiments or frozen in liquid nitrogen and stored frozen at −80° C.
(§5) Cell lysate (approximately 50 mg protein per plate) was thawed in a water bath at room temperature and then kept on ice. To the thawed cell lysate 1× DP 0.8% NP40 buffer containing protease inhibitors (1 tablet for 25 ml buffer; EDTA-free protease inhibitor cocktail; Roche Diagnostics 1873580) was added in order to reach a final protein concentration of 5 mg/ml total protein. The diluted cell lysate was stored on ice. Mixed Molt4/Ramos lysate was prepared by combining one volume of Molt4 lysate and two volumes of Ramos lysate (ratio 1:2).
(§6) To a 96 well filter plate (Multiscreen HTS, BV Filter Plates, Millipore #MSBVN1250) were added per well: 100 μl affinity matrix (3% beads slurry), 3 μl of compound solution, and 50 μl of diluted lysate. Plates were sealed and incubated for three hours in a cold room on a plate shaker (Heidolph tiramax 1000) at 750 rpm. Afterwards the plate was washed twice with 230 μl washing buffer (1× DP 0.4% NP40). […]

Another test addresses T2, JAK3 (Homo sapiens, UniProt P52333).
T2 construct: endogenous in cells; host or cells: Mixed Molt4 / Ramos cell lysate (1:2)
T2 sequence (P52333 1-1124): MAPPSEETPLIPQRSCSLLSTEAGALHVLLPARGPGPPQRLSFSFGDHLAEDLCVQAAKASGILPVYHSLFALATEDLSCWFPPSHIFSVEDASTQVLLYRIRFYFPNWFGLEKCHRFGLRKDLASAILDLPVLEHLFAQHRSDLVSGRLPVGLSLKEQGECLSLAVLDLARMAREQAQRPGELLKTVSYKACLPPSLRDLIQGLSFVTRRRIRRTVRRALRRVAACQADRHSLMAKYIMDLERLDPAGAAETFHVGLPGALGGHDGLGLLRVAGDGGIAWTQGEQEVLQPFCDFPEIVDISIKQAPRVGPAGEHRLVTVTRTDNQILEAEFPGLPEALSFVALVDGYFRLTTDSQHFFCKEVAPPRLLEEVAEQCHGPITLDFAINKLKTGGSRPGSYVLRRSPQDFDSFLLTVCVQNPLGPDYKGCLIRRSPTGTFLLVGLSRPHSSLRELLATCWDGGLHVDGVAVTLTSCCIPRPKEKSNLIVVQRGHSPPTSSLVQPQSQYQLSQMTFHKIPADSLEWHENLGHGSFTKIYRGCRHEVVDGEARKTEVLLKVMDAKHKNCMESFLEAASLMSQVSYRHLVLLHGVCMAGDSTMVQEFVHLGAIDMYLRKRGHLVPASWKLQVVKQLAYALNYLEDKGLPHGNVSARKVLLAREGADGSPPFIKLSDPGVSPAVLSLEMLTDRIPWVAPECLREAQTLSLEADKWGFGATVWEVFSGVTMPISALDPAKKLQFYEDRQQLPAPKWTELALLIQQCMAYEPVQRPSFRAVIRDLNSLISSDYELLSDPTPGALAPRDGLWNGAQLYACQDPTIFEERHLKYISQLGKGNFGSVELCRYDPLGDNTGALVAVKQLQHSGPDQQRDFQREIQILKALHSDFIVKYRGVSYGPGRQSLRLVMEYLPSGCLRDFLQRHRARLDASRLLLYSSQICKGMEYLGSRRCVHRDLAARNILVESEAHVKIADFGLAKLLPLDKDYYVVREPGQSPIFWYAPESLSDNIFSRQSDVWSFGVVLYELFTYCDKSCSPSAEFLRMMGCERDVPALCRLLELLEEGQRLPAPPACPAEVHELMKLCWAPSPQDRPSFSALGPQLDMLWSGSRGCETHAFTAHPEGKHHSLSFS
In words: kinobeads assay (competition with affinity matrix in mixed Molt4/Ramos cell lysate, dot blot detection), JAK3. The class given is binding. The note with it: activity level. The method, then: as §1, §2, §3, §4, §5, §6

SMILES strings stand for the structures.

T1 sequence (O60674 whole entry): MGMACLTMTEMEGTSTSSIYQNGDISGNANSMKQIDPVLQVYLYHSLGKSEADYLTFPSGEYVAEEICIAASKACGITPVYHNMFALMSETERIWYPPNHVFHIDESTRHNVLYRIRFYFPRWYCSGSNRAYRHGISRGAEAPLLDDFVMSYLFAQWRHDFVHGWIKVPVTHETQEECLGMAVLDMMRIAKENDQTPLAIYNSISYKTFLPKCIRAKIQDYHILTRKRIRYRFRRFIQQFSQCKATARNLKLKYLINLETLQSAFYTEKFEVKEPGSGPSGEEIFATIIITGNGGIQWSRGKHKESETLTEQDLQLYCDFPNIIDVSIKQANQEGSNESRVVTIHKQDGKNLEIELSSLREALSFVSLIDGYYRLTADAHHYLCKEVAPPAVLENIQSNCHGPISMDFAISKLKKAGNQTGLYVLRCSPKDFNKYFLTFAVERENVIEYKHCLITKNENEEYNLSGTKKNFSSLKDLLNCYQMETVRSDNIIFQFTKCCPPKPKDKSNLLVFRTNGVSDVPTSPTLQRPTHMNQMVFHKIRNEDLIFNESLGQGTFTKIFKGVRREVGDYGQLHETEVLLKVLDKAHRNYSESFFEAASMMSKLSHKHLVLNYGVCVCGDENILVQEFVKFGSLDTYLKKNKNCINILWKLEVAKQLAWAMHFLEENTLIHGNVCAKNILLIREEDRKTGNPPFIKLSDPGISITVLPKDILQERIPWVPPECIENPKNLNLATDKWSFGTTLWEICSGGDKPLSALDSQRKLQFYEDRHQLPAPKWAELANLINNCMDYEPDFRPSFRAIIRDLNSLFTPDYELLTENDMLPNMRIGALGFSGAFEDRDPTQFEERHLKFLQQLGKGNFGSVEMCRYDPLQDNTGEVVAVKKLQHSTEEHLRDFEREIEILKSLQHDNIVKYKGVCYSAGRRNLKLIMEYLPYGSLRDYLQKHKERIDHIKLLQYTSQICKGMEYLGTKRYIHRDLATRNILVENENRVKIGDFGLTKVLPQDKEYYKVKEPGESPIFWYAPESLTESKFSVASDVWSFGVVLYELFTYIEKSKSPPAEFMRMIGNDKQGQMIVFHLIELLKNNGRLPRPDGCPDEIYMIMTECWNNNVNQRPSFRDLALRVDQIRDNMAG

For the molecule `CS(=O)(=O)Nc1ccccc1Nc1nc(Nc2cc(F)c(C(=O)NC3CC3)cc2F)ncc1Cl` [Example 57, 4-((5-chloro-4-((2-(methylsulfonamido)phenyl)amino)pyrimidin-2-yl)amino)-N-cyclopropyl-2,5-difluorobenzamide], the results for the IC50 at JAK2 and at JAK3 were more than 10000 nM and less than 100 nM, respectively.

As to `CCS(=O)(=O)Nc1ccccc1Nc1nc(Nc2cc(C(=O)N3CCCC3)ccc2F)ncc1Cl` [Example 41, N-(2-(5-chloro-2-(2-fluoro-5-(pyrrolidine-1-carbonyl)phenylamino)pyrimidin-4-ylamino)phenyl)ethanesulfonamide], the IC50 on JAK2 is more than 10000 nM; at JAK3 it was 100 to 1000 nM.

Turning to `COc1ccc(Nc2nc(Nc3cc(-n4cnnn4)ccc3F)ncc2F)c(NS(C)(=O)=O)c1` [Example 5, N-(2-(5-fluoro-2-(2-fluoro-5-(1H-tetrazol-1-yl)phenylamino)pyrimidin-4-ylamino)-5-methoxyphenyl)methanesulfonamide], the IC50 on JAK2 was 1000 to 10000 nM; on JAK3, less than 100 nM.

Take `CNC(=O)c1ccc(F)c(Nc2ncc(Cl)c(Nc3cc(F)c(F)cc3NS(C)(=O)=O)n2)c1` [Example 63, 3-(5-chloro-4-(4,5-difluoro-2-(methylsulfonamido)phenylamino)pyrimidin-2-ylamino)-4-fluoro-N-methylbenzamide]: the IC50 on JAK2 lay within 1000 to 10000 nM; at JAK3, 100 to 1000 nM.

As for `CS(=O)(=O)Nc1ccccc1Nc1nc(Nc2cc(C(N)=O)ccc2F)ncc1F` [Example 29, 4-fluoro-3-(5-fluoro-4-(2-(methylsulfonamido)phenylamino)pyrimidin-2-ylamino)benzamide], the 50% inhibitory concentration (IC50) at JAK2 was more than 10000 nM; at JAK3 it was 100 to 1000 nM.

As for `Cc1cccc(Nc2nc(Nc3cc(C(=O)NCCO)ccc3F)ncc2Cl)c1NS(C)(=O)=O` [Example 59, 3-((5-chloro-4-((3-methyl-2-(methylsulfonamido)phenyl)amino)pyrimidin-2-yl)amino)-4-fluoro-N-(2-hydroxyethyl)benzamide], the IC50 at JAK2 was more than 10000 nM; at JAK3 it was less than 100 nM.

As to `CCNC(=O)c1ccc(F)c(Nc2ncc(Cl)c(Nc3ccccc3NS(C)(=O)=O)n2)c1` [Example 14], the IC50 is 100 to 1000 nM on JAK2 and less than 100 nM at JAK3.

`CS(=O)(=O)Nc1ccccc1Nc1nc(Nc2cc(C#N)ccc2F)ncc1Cl` [Example 28, N-(2-(5-chloro-2-(5-cyano-2-fluorophenylamino)pyrimidin-4-ylamino)phenyl)methanesulfonamide]: the figures for the IC50 at JAK2 and at JAK3 were more than 10000 nM and less than 100 nM, respectively.

Take `CS(=O)(=O)Nc1ccccc1Nc1nc(Nc2cc(C(=O)NC3CC3)ccc2F)ncc1F` [Example 32, 3-(5-fluoro-4-(2-(methylsulfonamido)phenylamino)pyrimidin-2-ylamino)-N-cyclopropyl-4-fluorobenzamide]: the concentration for half-maximal inhibition (IC50) on JAK2 was more than 10000 nM; at JAK3, 100 to 1000 nM.

Regarding `CCNC(=O)c1ccc(Nc2ncc(Cl)c(Nc3cccc(F)c3NS(C)(=O)=O)n2)c(F)c1` [Example 60, 4-((5-chloro-4-((3-fluoro-2-(methylsulfonamido)phenyl)amino)pyrimidin-2-yl)amino)-N-ethyl-3-fluorobenzamide], the IC50 at JAK2 is more than 10000 nM; on JAK3, less than 100 nM.

Consider `CCN(CC)C(=O)c1ccc(F)c(Nc2ncc(Cl)c(Nc3ccccc3NS(=O)(=O)CC)n2)c1` [Example 40, 3-(5-chloro-4-(2-(ethylsulfonamido)phenylamino)pyrimidin-2-ylamino)-N,N-diethyl-4-fluorobenzamide], for which the IC50 at JAK2 is more than 10000 nM; at JAK3 it was less than 100 nM.

Take `CS(=O)(=O)Nc1c(F)cccc1Nc1nc(Nc2cc(-n3cnnn3)ccc2F)ncc1Cl` [Example 55, N-(2-(5-chloro-2-(2-fluoro-5-(1H-tetrazol-1-yl)phenylamino)pyrimidin-4-ylamino)-6-fluorophenyl)methanesulfonamide]: the figures for the 50% inhibitory concentration (IC50) on JAK2 and on JAK3 were 100 to 1000 nM and less than 100 nM, respectively.

Take `CS(=O)(=O)Nc1ccccc1Nc1nc(Nc2cc(C(=O)N3CCCCC3)ccc2F)ncc1Cl` [Example 17, N-(2-(5-chloro-2-(2-fluoro-5-(piperidine-1-carbonyl)phenylamino)pyrimidin-4-ylamino)phenyl)methanesulfonamide]: the figures for the half-maximal inhibitory concentration (IC50) on JAK2 and at JAK3 were 1000 to 10000 nM and less than 100 nM, respectively.

`CS(=O)(=O)Nc1c(F)cc(F)cc1Nc1nc(Nc2cc(C(=O)NC3CC3)ccc2F)ncc1Cl` [Example 62, 3-((5-chloro-4-((3,5-difluoro-2-(methylsulfonamido)phenyl)amino)pyrimidin-2-yl)amino)-N-cyclopropyl-4-fluorobenzamide]: the IC50 fell in the range of 1000 to 10000 nM on JAK2 and 100 to 1000 nM on JAK3.

As for `CC(C)NC(=O)c1ccc(Nc2ncc(Cl)c(Nc3ccccc3NS(C)(=O)=O)n2)c(F)c1F` [Example 58, 4-((5-chloro-4-((2-(methylsulfonamido)phenyl)amino)pyrimidin-2-yl)amino)-2,3-difluoro-N-isopropylbenzamide], the IC50 is 1000 to 10000 nM on JAK2 and less than 100 nM on JAK3.

With `CS(=O)(=O)Nc1ccccc1Nc1nc(Nc2ccc(C#N)cc2F)ncc1Cl` [Example 26, N-(2-(5-chloro-2-(4-cyano-2-fluorophenylamino)pyrimidin-4-ylamino)phenyl)methanesulfonamide], the concentration for half-maximal inhibition (IC50) on JAK2 was more than 10000 nM; on JAK3 it was 100 to 1000 nM.

For the molecule `CS(=O)(=O)Nc1ccccc1Nc1nc(Nc2ccc(N3CCOCC3)cc2F)ncc1F` [Example 2, N-(2-(5-fluoro-2-(2-fluoro-4-morpholinophenylamino)pyrimidin-4-ylamino)phenyl)methanesulfonamide], the half-maximal inhibitory concentration (IC50) is more than 10000 nM at JAK2 and 100 to 1000 nM at JAK3.
